The results in this text go back to PubChem BioAssay AID248 (DTP/NCI, 2004).

The structures appear in SMILES notation. Where “and” joins values, the source holds several entries; their conditions need not be identical. Identical values can stand only once. Inconclusive results and toxic doses are left out.

This test deals with L1210 leukemia ip in BDF1 mice, survival T/C. Kind of test: NCI In Vivo Anticancer Drug Screen. Data for tumor model L1210 Leukemia (intraperitoneal) in B6D2F1 (BDF1) mice. The settings on record: endpoint: mean survival time, higher = longer survival. A digest of the protocol: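 Transplanted-tumor mice were given test agent; controls received vehicle only. Survival readings from the two groups were divided (treated over control).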

[1] abbreviates: dose: 100.0 mg/kg/injection, schedule: Q04DX003 (ip), vehicle: saline.
Setting [2] is: dose: 200.0 mg/kg/injection, schedule: Q01DX009 (ip), vehicle: saline.
Setting [3] is: dose: 200.0 mg/kg/injection, schedule: Q04DX003 (ip), vehicle: saline.
[4] abbreviates: dose: 100.0 mg/kg/injection, schedule: Q01DX001 (ip), vehicle: saline.
The mark [5] stands for this setting: dose: 200.0 mg/kg/injection, schedule: Q01DX001 (ip), vehicle: saline.
The mark [6] stands for this setting: dose: 400.0 mg/kg/injection, schedule: Q01DX001 (ip), vehicle: saline.
The mark [7] stands for this setting: dose: 400.0 mg/kg/injection, schedule: Q04DX003 (ip), vehicle: saline.
Where [8] appears, read: dose: 100.0 mg/kg/injection, schedule: Q04DX003 (ip), vehicle: Klucel (hydroxypropylcellulose) (HPC).
Where [9] appears, read: dose: 100.0 mg/kg/injection, schedule: Q04DX003 (ip), vehicle: saline with Tween-80.
The mark [10] stands for this setting: dose: 200.0 mg/kg/injection, schedule: Q04DX003 (ip), vehicle: Klucel (hydroxypropylcellulose) (HPC).
The mark [11] stands for this setting: dose: 200.0 mg/kg/injection, schedule: Q04DX003 (ip), vehicle: saline with Tween-80.
The mark [12] stands for this setting: dose: 400.0 mg/kg/injection, schedule: Q04DX003 (ip), vehicle: saline with Tween-80.
Where [13] appears, read: dose: 100.0 mg/kg/injection, schedule: Q01DX009 (ip), vehicle: saline with Tween-80.
Setting [14] is: dose: 200.0 mg/kg/injection, schedule: Q01DX009 (ip), vehicle: saline with Tween-80.
The mark [15] stands for this setting: dose: 400.0 mg/kg/injection, schedule: Q01DX009 (ip), vehicle: saline with Tween-80.

For `[Cl][Nd]([Cl])[Cl]`, the T/C is 98 % of control (dose: 12.5 mg/kg/injection, schedule: Q01DX009 (ip), vehicle: saline); 87 % of control (dose: 25.0 mg/kg/injection, schedule: Q01DX009 (ip), vehicle: saline); 93 % of control and 91 % of control (dose: 50.0 mg/kg/injection, schedule: Q01DX009 (ip), vehicle: saline); 100 % of control under setting [1]; 86 % of control under setting [2]; 100 % of control under setting [3].
`CCCCC(=O)N/N=C/c1ccc(O)cc1O`: the T/C is 97 % of control under setting [4], 92 % of control under setting [5] and 94 % of control under setting [6].
On to `CCCCOC(=O)C(C)(O)C(Cl)c1ccccc1` (stereo not drawn), for which the T/C by setting is: (dose: 100.0 mg/kg/injection, schedule: Q04DX002 (ip), vehicle: saline) 100 % of control; (dose: 200.0 mg/kg/injection, schedule: Q04DX002 (ip), vehicle: saline) 95 % of control; (dose: 400.0 mg/kg/injection, schedule: Q04DX002 (ip), vehicle: saline) 91 % of control.
For the compound `CCC(=O)OC1(c2ccccc2)CCN(CCNc2ccccc2)CC1`, the T/C reads like this: (dose: 20.0 mg/kg/injection, schedule: Q04DX003 (ip), vehicle: Klucel (hydroxypropylcellulose) (HPC)) 100 % of control; (dose: 40.0 mg/kg/injection, schedule: Q04DX003 (ip), vehicle: Klucel (hydroxypropylcellulose) (HPC)) 103 % of control; (dose: 80.0 mg/kg/injection, schedule: Q04DX003 (ip), vehicle: Klucel (hydroxypropylcellulose) (HPC)) 105 % of control.
For `CCC(Cl)COP(=O)(CC(Cl)CC)O/C(C)=C(\C)OP(=O)(OCC(Cl)CC)OCC(Cl)CC` (stereo not drawn), the T/C by setting is: (dose: 25.0 mg/kg/injection, schedule: Q04DX002 (sc), vehicle: olive oil, sesame oil, peanut oil) 104 % of control; (dose: 50.0 mg/kg/injection, schedule: Q04DX002 (sc), vehicle: olive oil, sesame oil, peanut oil) 93 % of control; (dose: 100.0 mg/kg/injection, schedule: Q04DX002 (sc), vehicle: olive oil, sesame oil, peanut oil) 107 % of control.
Regarding `COC(=O)c1ccc(N(C)Cc2cnc3[nH]c(N)nc(=S)c3n2)cc1`, the T/C runs as follows: (dose: 50.0 mg/kg/injection, schedule: Q01DX001 (ip), vehicle: saline with Tween-80) 100 % of control; (dose: 100.0 mg/kg/injection, schedule: Q01DX001 (ip), vehicle: saline with Tween-80) 94 % of control; (dose: 200.0 mg/kg/injection, schedule: Q01DX001 (ip), vehicle: saline with Tween-80) 94 % of control.
As to `COC(C)C(OC)OC` (stereo not drawn), the T/C is 98 % of control (dose: 100.0 mg/kg/injection, schedule: Q01DX009 (ip), vehicle: saline); 101 % of control under setting [1]; 96 % of control under setting [2]; 103 % of control under setting [3]; 96 % of control (dose: 400.0 mg/kg/injection, schedule: Q01DX009 (ip), vehicle: saline); 92 % of control under setting [7].
With `COc1ccc(C=O)cc1OC`, the T/C was 101 % of control (dose: 100.0 mg/kg/injection, schedule: Q01DX009 (ip), vehicle: Klucel (hydroxypropylcellulose) (HPC)); 102 % of control (dose: 200.0 mg/kg/injection, schedule: Q01DX009 (ip), vehicle: Klucel (hydroxypropylcellulose) (HPC)); 96 % of control (dose: 400.0 mg/kg/injection, schedule: Q01DX009 (ip), vehicle: Klucel (hydroxypropylcellulose) (HPC)).
As to `O=C(O)C1(c2ccccc2)OC1c1ccccc1` (stereo not drawn), the T/C by setting is: (dose: 100.0 mg/kg/injection, schedule: Q01DX001 (ip), vehicle: Klucel (hydroxypropylcellulose) (HPC)) 93 % of control; under setting [8], 95 % of control; under setting [9], 90 % of control; (dose: 200.0 mg/kg/injection, schedule: Q01DX001 (ip), vehicle: Klucel (hydroxypropylcellulose) (HPC)) 91 % of control; under setting [10], 95 % of control; under setting [11], 86 % of control. Besides, the T/C reads like this: (dose: 400.0 mg/kg/injection, schedule: Q01DX001 (ip), vehicle: Klucel (hydroxypropylcellulose) (HPC)) 93 % of control; (dose: 400.0 mg/kg/injection, schedule: Q04DX003 (ip), vehicle: Klucel (hydroxypropylcellulose) (HPC)) 86 % of control; under setting [12], 92 % of control.
As for `COc1ccc(C(=O)OC(=O)c2ccc(OC)cc2)cc1`, the T/C runs as follows: (dose: 50.0 mg/kg/injection, schedule: Q01DX001 (ip), vehicle: carboxymethylcellulose (CMC)) 110 % of control; (dose: 100.0 mg/kg/injection, schedule: Q01DX001 (ip), vehicle: carboxymethylcellulose (CMC)) 104 % of control; under setting [13], 113 % of control; under setting [9], 102 % of control; (dose: 200.0 mg/kg/injection, schedule: Q01DX001 (ip), vehicle: carboxymethylcellulose (CMC)) 108 % of control; under setting [14], 116 % of control. Also, the T/C was 102 % of control under setting [11]; 112 % of control (dose: 400.0 mg/kg/injection, schedule: Q01DX001 (ip), vehicle: carboxymethylcellulose (CMC)); 110 % of control under setting [15]; 101 % of control under setting [12].
As to `Cc1cn2c(nc1=O)OC1CC2OC1CO` (stereo not drawn), the T/C (dose: 100.0 mg/kg/injection, schedule: Q01DX005 (ip), vehicle: saline) is 122 % of control and the T/C (dose: 200.0 mg/kg/injection, schedule: Q01DX005 (ip), vehicle: saline) is 152 % of control.
As to `O=C(O)C(=O)c1ccc(-c2ccccc2)cc1`, the T/C is, setting by setting: (dose: 5.0 mg/kg/injection, schedule: Q01DX Z (ip), vehicle: carboxymethylcellulose (CMC)) 102 % of control; (dose: 10.0 mg/kg/injection, schedule: Q01DX Z (ip), vehicle: carboxymethylcellulose (CMC)) 100 % of control; (dose: 20.0 mg/kg/injection, schedule: Q01DX Z (ip), vehicle: carboxymethylcellulose (CMC)) 94 % of control; (dose: 40.0 mg/kg/injection, schedule: Q01DX Z (ip), vehicle: carboxymethylcellulose (CMC)) 100 % of control; (dose: 75.0 mg/kg/injection, schedule: Q01DX001 (ip), vehicle: carboxymethylcellulose (CMC)) 101 % of control; (dose: 150.0 mg/kg/injection, schedule: Q01DX001 (ip), vehicle: carboxymethylcellulose (CMC)) 101 % of control.
For the compound `O=[N+]([O-])c1ccc(S(=O)(=O)Nc2ccccc2-c2ccccc2)cc1`, the T/C was 96 % of control under setting [13]; 91 % of control under setting [9]; 98 % of control under setting [14]; 91 % of control under setting [11]; 96 % of control under setting [15]; 86 % of control under setting [12].
For `COc1nc(OC)n(C)c(=O)c1OP(=O)(OC)OC`, the T/C runs as follows: (dose: 50.0 mg/kg/injection, schedule: Q01DX001 (ip), vehicle: saline) 98 % of control; under setting [4], 93 % of control; under setting [5], 93 % of control; under setting [6], 95 % of control.
For the compound `OCCN1CCN(C(=S)[S-])CC1.OCCN1CCN(C(=S)[S-])CC1.[Zn]`, the T/C is 93 % of control (dose: 10.0 mg/kg/injection, schedule: Q04DX003 (ip), vehicle: saline) and 90 % of control (dose: 20.0 mg/kg/injection, schedule: Q04DX003 (ip), vehicle: saline).
In the case of `FC1(F)C(F)(F)C(Cl)(Cl)C1(Cl)Cl`, the T/C by setting is: under setting [1], 104 % of control; under setting [3], 96 % of control; under setting [7], 107 % of control.
For the compound `Oc1ccc(/C=N/N2CCN(/N=C/c3ccc(O)cc3O)CC2)c(O)c1`, the T/C is 97 % of control under setting [4], 94 % of control under setting [5] and 100 % of control under setting [6].
For the compound `O=Cc1cc(Br)c(O)c(Br)c1`, the T/C is 100 % of control (dose: 50.0 mg/kg/injection, schedule: Q04DX003 (ip), vehicle: Klucel (hydroxypropylcellulose) (HPC)); 101 % of control under setting [8]; 100 % of control under setting [10].
